Data on eleven compounds can be found in US4000160A, “Pyrrolyl oxyphenyl ketones” (Sterling Drug Inc., priority 1975, dated 1976).

Values after ≈ are worked out from the molar mass of the structure shown. Like-named read-outs stand apart in the source and are kept apart here.

Common to all, as to type: cell-based
The subject of one assay is Escherichia coli 198. The assay can be described thus: in vitro antibacterial test (modified Autotiter method), minimum inhibitory concentration. The protocol: (§1) The antibacterial activity was determined using a modification of the Autotiter method described by Goss et al., Applied Microbiology, 16 (No. 9), 1414-1416 (1968) in which a 1000 mcg./ml. solution of the test compound is prepared. To the first cup of the Autotray is added 0.1 ml. of the test solution. Activation of the Autotiter initiates a sequence of operations by which 0.05 ml. of the test compound solution is withdrawn from this cup by a Microtiter transfer loop and diluted in 0.05 ml. of sterile semisynthetic medium (glucose). After this operation, 0.05 ml. of inoculated semisynthetic medium is added automatically to each cup. The overall operation results in final drug concentrations ranging from 500 to 0.06 mcg./ml. in twofold decrements. The Autotray is incubated for 18-20 hours at 37° C., at which time the trays are examined visually for growth as evidenced by turbidity, and the concentration of the last sample in the series showing no growth (or no turbidity) is recorded as the minimal inhibitory concentration (MIC). The compounds of formula I were thus found to be antibacterially effective against Staphylococcus aureus, Pseudomonas aeruginosa, Escherichia coli, and Proteus vulgaris at concentrations from 2 to 500 mcg./ml.
(§2) Data, expressed in terms of the minimum inhibitory concentration in mcg./ml., obtained in in vitro tests of the compounds of the invention in comparison with pyoluteorin against the bacterial organisms Staphylococcus aureus 209, Escherichia coli 198, Klebsiella pneumoniae 39645, Proteus vulgaris 9920, and Pseudomonas aeruginosa 211 (identified below as organisms A, B, C, D and E, respectively) are given in the table below.

Another assay concerns Proteus vulgaris 9920. Described as above. As for the experimental part: as §1, §2
For assay [1], the system named is Pseudomonas aeruginosa 211. The assay is described as above. The protocol:
as §1, §2

Assay [2] has as its system Klebsiella pneumoniae 39645. The description is as above. The following applies: organism C. As for the experimental part:
as §1, §2

In assay [3] the test system is Staphylococcus aureus 209. The description is as above. As for the experimental part:
as §1, §2

Assay [4] concerns Ceratocystis ulmi. Kind of assay: shake culture test, percent inhibition of Ceratocystis ulmi. Conditions: 120 h, read-out: % Inhibition, Shake Culture. As for the experimental part:
(§3) The test procedures, the agar growth and shake culture tests, used to determine this latter activity are described as follows: In the agar growth test a solution of 2 mg. of the test compound in 2 ml. of acetone was prepared and 0.2 ml. of this solution was added via sterile glass pipette to 20 ml. of molten (42° C.) sterile potato dextrose agar. Mixing was accomplished by repeated inversion of the tube. The mixture was poured into a sterile Petri dish, allowed to solidify at room temperature, and then was inoculated by placing in the center of the agar-chemical mixture a section (3 mm. diameter) of agar permeated with the mycelium of Ceratocystis ulmi. The inoculated dish was incubated at 25° C. for 5 days when the diameter of growth was measured and compared to the growth which had occurred in a control culture. The percent inhibition was calculated as: [formula] In the shake culture test, a 0.2 ml. aliquot of an acetone solution of the test compound (2 mg. in 2 ml.) was added to 20 ml. of sterile potato dextrose broth in a sterile 250 ml. Erlenmeyer flask. The flask was stoppered with a plug of sterile cotton, and the mixture was shaken for one hour on a New Brunswick "Gyrotatary" shake table. The mixture was inoculated by addition of a section (3 mm. diameter) of agar permeated with the mycelium of Ceratocystis ulmi and returned to the shake table where shaking was continued for five days at room temperature. The optical density of the mixture was measured, using an uninoculated sample of the broth as a blank, and compared with a control sample. The percent inhibition was calculated as: […]
(§4) Data obtained for the compounds of the invention in in vitro tests against fungal organism, Ceratocystis ulmi, in the agar growth and shake culture tests in comparison with the known antibiotic, pyoluteorin, at a standard dilution of 10 parts per million are given in terms of percent inhibition in the table below. The compounds are identified by reference to the example number above where their preparation is described.

The subject of assay [5] is Ceratocystis ulmi. The assay can be described thus: agar growth test, percent inhibition of Ceratocystis ulmi. The following applies: 120 h, read-out: % Inhibition, Agar Growth. The protocol: as §3, §4
Setting [6] is: organism B, Escherichia coli 198, in vitro, read-out: minimum inhibitory concentration (MIC).
The mark [7] stands for this setting: organism D, Proteus vulgaris 9920, in vitro, read-out: minimum inhibitory concentration (MIC).
Setting [8] is: organism E, Pseudomonas aeruginosa 211, in vitro, read-out: minimum inhibitory concentration (MIC).
[9] abbreviates: organism A, Staphylococcus aureus 209, in vitro, read-out: minimum inhibitory concentration (MIC).
Setting [10] is: 10 parts per million, broth, room temperature, five days.
The mark [11] stands for this setting: 10 parts per million, agar, 25° C., 5 days.

`COc1ccc(C(=O)c2cc(Cl)c(Cl)[nH]2)cc1` [Example 7, 4,5-dichloropyrrol-2-yl 4-methoxyphenyl ketone]: the MIC is 15.6 µg/mL (≈ 57.8 µM) in the assay with Escherichia coli 198 (setting [6]); 62.5 µg/mL (≈ 231 µM) in the assay with Proteus vulgaris 9920 (setting [7]); more than 250 µg/mL in assay [1] (setting [8]); more than 62.5 µg/mL in assay [2]; more than 31.6 µg/mL in assay [3] (setting [9]). For the same compound, the inhibition of growth at 10 µg/mL in the assay with Ceratocystis ulmi [4] (setting [10]) stood at 61%; in the assay on Ceratocystis ulmi [5] (setting [11]), 32%.

As for `COc1cccc(C(=O)c2cc(Br)c(Br)[nH]2)c1` [Example 8, 4,5-dibromopyrrol-2-yl 3-methoxyphenyl ketone], the MIC was 250 µg/mL (≈ 696 µM) in the assay on Escherichia coli 198 (setting [6]); 125 µg/mL (≈ 348 µM) with Proteus vulgaris 9920 (setting [7]); more than 125 µg/mL in assay [1] (setting [8]); more than 250 µg/mL in assay [2]; 250 µg/mL (≈ 696 µM) in assay [3] (setting [9]). In addition, the results for the inhibition of growth at 10 µg/mL with Ceratocystis ulmi [4] (setting [10]) and in the assay with Ceratocystis ulmi [5] (setting [11]) were 75% and 28%, respectively.

As for `O=C(c1cc(Br)c(Br)[nH]1)c1cc(O)ccc1O` [Example 5, 4,5-dibromopyrrol-2-yl 2,5-dihydroxyphenyl ketone], the MIC in the assay on Escherichia coli 198 (setting [6]) is 125 µg/mL (≈ 346 µM); in the assay with Proteus vulgaris 9920 (setting [7]), 62.5 µg/mL (≈ 173 µM); in assay [1] (setting [8]), 125 µg/mL (≈ 346 µM); in assay [2], more than 125 µg/mL; in assay [3] (setting [9]), 15.6 µg/mL (≈ 43.2 µM). The inhibition of growth at 10 µg/mL was 83% with Ceratocystis ulmi [4] (setting [10]) and 28% in the assay on Ceratocystis ulmi [5] (setting [11]).

For the compound `COc1ccc(C(=O)c2cc(Br)c(Br)[nH]2)cc1` [Example 6, 4,5-dibromopyrrol-2-yl 4-methoxyphenyl ketone], the MIC (in the assay on Escherichia coli 198 (setting [6]); in the assay on Proteus vulgaris 9920 (setting [7]); in assay [1] (setting [8]); in assay [2]; in assay [3] (setting [9])) was more than 125 µg/mL each time. Besides, the values for the inhibition of growth at 10 µg/mL with Ceratocystis ulmi [4] (setting [10]) and in the assay with Ceratocystis ulmi [5] (setting [11]) were 66% and 11%, respectively.

For `O=C(c1cc(Cl)c(Cl)[nH]1)c1c(O)cccc1O` [Pyoluteorin, 4,5-dichloropyrrol-2-yl 2,6-dihydroxyphenyl ketone, reference compound], the MIC in the assay on Escherichia coli 198 (Escherichia coli, 198, read-out: minimum inhibitory concentration (MIC)) was 6.2 µg/mL (≈ 22.8 µM); with Proteus vulgaris 9920 (Proteus vulgaris, 9920, read-out: minimum inhibitory concentration (MIC)), 125 µg/mL (≈ 459 µM); in assay [1] (Pseudomonas aeruginosa, 211, read-out: minimum inhibitory concentration (MIC)), 125 µg/mL (≈ 459 µM); in assay [3] (Staphylococcus aureus, 209, read-out: minimum inhibitory concentration (MIC)) it was 3.1 µg/mL (≈ 11.4 µM). The inhibition of growth at 10 µg/mL worked out at 38% in the assay with Ceratocystis ulmi [4] and 4% in the assay with Ceratocystis ulmi [5].

Turning to `COc1ccc(OC)c(C(=O)c2cc(Br)c(Br)[nH]2)c1` [Example 2, 4,5-dibromopyrrol-2-yl 2,5-dimethoxyphenyl ketone], the MIC in the assay with Escherichia coli 198 (setting [6]) was more than 125 µg/mL; in the assay on Proteus vulgaris 9920 (setting [7]) it was more than 125 µg/mL; in assay [1] (setting [8]), more than 125 µg/mL; in assay [2] it was more than 125 µg/mL; in assay [3] (setting [9]) it was 31.3 µg/mL (≈ 80.5 µM). Moreover, the inhibition of growth at 10 µg/mL in the assay on Ceratocystis ulmi [4] (setting [10]) turned out to be 38%; in the assay on Ceratocystis ulmi [5] (setting [11]) it was 32%.

With `COc1ccc(C(=O)c2cc(Cl)c(Cl)[nH]2)c(OC)c1` [Example 1, 4,5-dichloropyrrol-2-yl 2,4-dimethoxyphenyl ketone], the MIC is more than 125 µg/mL in the assay with Escherichia coli 198 (setting [6]); more than 125 µg/mL in the assay with Proteus vulgaris 9920 (setting [7]); more than 125 µg/mL in assay [1] (setting [8]); more than 125 µg/mL in assay [2]; 62.5 µg/mL (≈ 208 µM) in assay [3] (setting [9]). Further, the inhibition of growth at 10 µg/mL came to 30% with Ceratocystis ulmi [4] (setting [10]) and 28% in the assay with Ceratocystis ulmi [5] (setting [11]).

`COc1ccc(C(=O)c2cc(Cl)c(Cl)[nH]2)cc1OC` [Example 3, 4,5-dichloropyrrol-2-yl 3,4-dimethoxyphenyl ketone]: the MIC (in the assay with Escherichia coli 198 (setting [6]); in the assay on Proteus vulgaris 9920 (setting [7]); in assay [1] (setting [8]); in assay [2]; in assay [3] (setting [9])) was more than 125 µg/mL in each case. The inhibition of growth at 10 µg/mL in the assay on Ceratocystis ulmi [4] (setting [10]) came out at 75%; with Ceratocystis ulmi [5] (setting [11]), 25%.

Take `COc1ccc(OC)c(C(=O)c2cc(Cl)c(Cl)[nH]2)c1` [Example 4, 4,5-dichloropyrrol-2-yl 2,5-dimethoxyphenyl ketone]: the MIC (with Escherichia coli 198 (setting [6]); in the assay with Proteus vulgaris 9920 (setting [7]); in assay [1] (setting [8]); in assay [2]; in assay [3] (setting [9])) was more than 125 µg/mL throughout. Further, the inhibition of growth at 10 µg/mL worked out at 72% with Ceratocystis ulmi [4] (setting [10]) and 48% in the assay on Ceratocystis ulmi [5] (setting [11]).

As to `O=C(c1cc(Cl)c(Cl)[nH]1)c1ccc(O)cc1O` [Example 9, 4,5-dichloropyrrol-2-yl 2,4-dihydroxyphenyl ketone], the MIC is 31.3 µg/mL (≈ 115 µM) in the assay on Escherichia coli 198 (setting [6]); more than 125 µg/mL in the assay with Proteus vulgaris 9920 (setting [7]); more than 125 µg/mL in assay [1] (setting [8]); more than 125 µg/mL in assay [2]; 3.9 µg/mL (≈ 14.3 µM) in assay [3] (setting [9]). Also, the values for the inhibition of growth at 10 µg/mL with Ceratocystis ulmi [4] (setting [10]) and with Ceratocystis ulmi [5] (setting [11]) were 72% and 55%, respectively.

In the case of `O=C(c1cc(Cl)c(Cl)[nH]1)c1cc(O)ccc1O` [Example 10, 4,5-dichloropyrrol-2-yl 2,5-dihydroxyphenyl ketone], the MIC came to 125 µg/mL (≈ 459 µM) in the assay with Escherichia coli 198 (setting [6]); 62.5 µg/mL (≈ 230 µM) with Proteus vulgaris 9920 (setting [7]); 125 µg/mL (≈ 459 µM) in assay [1] (setting [8]); 125 µg/mL (≈ 459 µM) in assay [2]; 0.98 µg/mL (≈ 3.6 µM) in assay [3] (setting [9]). Moreover, the inhibition of growth at 10 µg/mL with Ceratocystis ulmi [4] (setting [10]) is 64%; in the assay with Ceratocystis ulmi [5] (setting [11]), 21%.
